Measured values published in ChEMBL document CHEMBL2375330, “Synthesis of pyrazole encompassing 2-pyridone derivatives as antibacterial agents” (Bioorg Med Chem Lett, 2013).
Converted amounts (≈) assume the structure as drawn.

Key:
HeLa = test: Cytotoxicity against human HeLa cells by MTT assay; assay type: cell-based
Escherichia coli = test: microbe, parasite or virus in culture; assay type: functional; conditions: MTCC 443
Description: Antibacterial activity against Escherichia coli MTCC 443 by broth dilution method

Pseudomonas aeruginosa = test: microbe, parasite or virus in culture; assay type: functional; conditions: MTCC 1688
Description: Antibacterial activity against Pseudomonas aeruginosa MTCC 1688 by broth dilution method

Staphylococcus aureus = test: Antibacterial activity against Staphylococcus aureus MTCC 96 by broth dilution method; assay type: functional
Streptococcus pyogenes = test: microbe, parasite or virus in culture; assay type: functional; conditions: MTCC 442
Description: Antibacterial activity against Streptococcus pyogenes MTCC 442 by broth dilution method

NIH3T3 = test: Cytotoxicity against mouse NIH/3T3 cells by MTT assay; assay type: cell-based

Compound | IC50 (HeLa) [µg/mL] | MIC (Escherichia coli) [µg/mL] | MIC (Pseudomonas aeruginosa) [µg/mL] | MIC (Staphylococcus aureus) [µg/mL] | MIC (Streptococcus pyogenes) [µg/mL] | IC50 (NIH3T3) [µg/mL]
N#Cc1c(-c2cccc([N+](=O)[O-])c2)c(C#N)c(=O)n(/N=C/c2cn(-c3ccccc3)nc2-c2ccccc2)c1N | > 200 | 100 (≈ 190 µM) | 100 (≈ 190 µM) | 250 (≈ 475 µM) | 50 (≈ 95 µM) | 124 (≈ 236 µM)
N#Cc1c(-c2ccc([N+](=O)[O-])cc2)c(C#N)c(=O)n(/N=C/c2cn(-c3ccccc3)nc2-c2ccccc2)c1N | > 200 | 12.5 (≈ 23.7 µM) | 25 (≈ 47.5 µM) | 50 (≈ 95 µM) | 12.5 (≈ 23.7 µM) | 84 (≈ 160 µM)
N#Cc1c(-c2ccccc2Br)c(C#N)c(=O)n(/N=C/c2cn(-c3ccccc3)nc2-c2ccccc2)c1N | > 200 | 100 (≈ 178 µM) | 250 (≈ 446 µM) | 12.5 (≈ 22.3 µM) | 250 (≈ 446 µM) | 174 (≈ 310 µM)
N#Cc1c(-c2cccc(Br)c2)c(C#N)c(=O)n(/N=C/c2cn(-c3ccccc3)nc2-c2ccccc2)c1N | > 200 | 100 (≈ 178 µM) | 250 (≈ 446 µM) | 250 (≈ 446 µM) | 500 (≈ 892 µM) | 42 (≈ 74.9 µM)
N#Cc1c(-c2ccc(Br)cc2)c(C#N)c(=O)n(/N=C/c2cn(-c3ccccc3)nc2-c2ccccc2)c1N | > 200 | 500 (≈ 892 µM) | 100 (≈ 178 µM) | 12.5 (≈ 22.3 µM) | 100 (≈ 178 µM) | > 200
N#Cc1c(-c2ccccc2C(F)(F)F)c(C#N)c(=O)n(/N=C/c2cn(-c3ccccc3)nc2-c2ccccc2)c1N | > 200 | 100 (≈ 182 µM) | 250 (≈ 455 µM) | 100 (≈ 182 µM) | 250 (≈ 455 µM) | 56 (≈ 102 µM)
N#Cc1c(-c2ccc(C(F)(F)F)cc2)c(C#N)c(=O)n(/N=C/c2cn(-c3ccccc3)nc2-c2ccccc2)c1N | > 200 | 250 (≈ 455 µM) | 25 (≈ 45.5 µM) | 25 (≈ 45.5 µM) | 250 (≈ 455 µM) | > 200
N#Cc1c(-c2ccccc2)c(C#N)c(=O)n(/N=C/c2cn(-c3ccccc3)nc2-c2ccccc2)c1N | > 200 | 250 (≈ 519 µM) | 500 (≈ 1040 µM) | 500 (≈ 1040 µM) | 500 (≈ 1040 µM) | 180 (≈ 374 µM)
N#Cc1c(-c2ccccc2O)c(C#N)c(=O)n(/N=C/c2cn(-c3ccccc3)nc2-c2ccccc2)c1N | > 200 | 500 (≈ 1000 µM) | 500 (≈ 1000 µM) | 500 (≈ 1000 µM) | 250 (≈ 502 µM) | 162 (≈ 326 µM)
N#Cc1c(-c2ccc(O)cc2)c(C#N)c(=O)n(/N=C/c2cn(-c3ccccc3)nc2-c2ccccc2)c1N | > 200 | 500 (≈ 1000 µM) | 500 (≈ 1000 µM) | 500 (≈ 1000 µM) | 500 (≈ 1000 µM) | 110 (≈ 221 µM)
N#Cc1c(-c2ccccc2Cl)c(C#N)c(=O)n(/N=C/c2cn(-c3ccccc3)nc2-c2ccccc2)c1N | > 200 | 100 (≈ 194 µM) | 100 (≈ 194 µM) | 100 (≈ 194 µM) | 100 (≈ 194 µM) | 84 (≈ 163 µM)
N#Cc1c(-c2cccc(Cl)c2)c(C#N)c(=O)n(/N=C/c2cn(-c3ccccc3)nc2-c2ccccc2)c1N | > 200 | 50 (≈ 96.9 µM) | 250 (≈ 485 µM) | 500 (≈ 969 µM) | 100 (≈ 194 µM) | 52 (≈ 101 µM)
N#Cc1c(-c2ccc(Cl)cc2)c(C#N)c(=O)n(/N=C/c2cn(-c3ccccc3)nc2-c2ccccc2)c1N | > 200 | 500 (≈ 969 µM) | 500 (≈ 969 µM) | 100 (≈ 194 µM) | 12.5 (≈ 24.2 µM) | 64 (≈ 124 µM)
N#Cc1c(-c2ccccc2F)c(C#N)c(=O)n(/N=C/c2cn(-c3ccccc3)nc2-c2ccccc2)c1N | > 200 | 250 (≈ 500 µM) | 50 (≈ 100 µM) | 25 (≈ 50 µM) | 25 (≈ 50 µM) | > 200
N#Cc1c(-c2cccc(F)c2)c(C#N)c(=O)n(/N=C/c2cn(-c3ccccc3)nc2-c2ccccc2)c1N | > 200 | 100 (≈ 200 µM) | 50 (≈ 100 µM) | 50 (≈ 100 µM) | 50 (≈ 100 µM) | 154 (≈ 308 µM)
N#Cc1c(-c2ccc(F)cc2)c(C#N)c(=O)n(/N=C/c2cn(-c3ccccc3)nc2-c2ccccc2)c1N | > 200 | 12.5 (≈ 25 µM) | 25 (≈ 50 µM) | 12.5 (≈ 25 µM) | 100 (≈ 200 µM) | > 200
Cc1ccc(-c2c(C#N)c(N)n(/N=C/c3cn(-c4ccccc4)nc3-c3ccccc3)c(=O)c2C#N)cc1 | > 200 | 500 (≈ 1010 µM) | 250 (≈ 504 µM) | 500 (≈ 1010 µM) | 250 (≈ 504 µM) | 98 (≈ 198 µM)
COc1ccc(-c2c(C#N)c(N)n(/N=C/c3cn(-c4ccccc4)nc3-c3ccccc3)c(=O)c2C#N)cc1 | > 200 | 500 (≈ 977 µM) | 500 (≈ 977 µM) | 500 (≈ 977 µM) | 250 (≈ 489 µM) | 50 (≈ 97.7 µM)
COc1cc(-c2c(C#N)c(N)n(/N=C/c3cn(-c4ccccc4)nc3-c3ccccc3)c(=O)c2C#N)cc(OC)c1OC | > 200 | 500 (≈ 875 µM) | 250 (≈ 437 µM) | 500 (≈ 875 µM) | 250 (≈ 437 µM) | 64 (≈ 112 µM)
N#Cc1c(-c2ccccc2[N+](=O)[O-])c(C#N)c(=O)n(/N=C/c2cn(-c3ccccc3)nc2-c2ccccc2)c1N | > 200 | 25 (≈ 47.5 µM) | 100 (≈ 190 µM) | 25 (≈ 47.5 µM) | 250 (≈ 475 µM) | > 200
O=C(O)c1cn(C2CC2)c2cc(N3CCNCC3)c(F)cc2c1=O [CIPROFLOXACIN] |  | 25 (≈ 75.4 µM) |  | 50 (≈ 151 µM) | 50 (≈ 151 µM) | 
